Assay [1] concerns the target T1, TYK2-JH2 (aa 575-869, in-house) protein (Homo sapiens, UniProt P29597).
T1 construct: TYK2-JH2 (aa 575-869, in-house) protein; made in house
In words: TYK2-JH2 biochemical assay (HTRF, blocking of TYK2-JH2 protein with its probe). The class given is binding. To be noted: for IC50: HTRF, 0.2 nM recombinant TYK2-JH2, Probe 1; for Biochemical assay Selectivity fold (TYK2/JAK1): TYK2-JH2 vs JAK1-JH2 biochemical IC50. How it is done:
Assay A: TYK2-JH2 Biochemical Assay
Compounds disclosed herein were tested for blocking of TYK2-JH2 (aa 575-869, in-house) protein with its probe in an assay based on Homogeneous Time Resolved Fluorescence.
Compound dilution is done according to the following protocol: (1) Prepare 500× compounds solution in DMSO from 500 uM by 5-fold dilution, total 10 doses were included; (2) Prepare 10× compounds solution in an assay buffer containing 20 mM HEPES, pH 7.5, 10 mM MgCl2, 0.005% BSA, 2 mM DTT, 0.015% Brij-35 by transferring 1 μl serial 500× stock solution into 49 μl assay buffer. 4 μl of 0.2 nM recombinant TYK2-JH2 protein was pre-incubated with 1 μl of 10×serial dilution of compounds at room temperature for 0.5 hour. Then 5 μl of 10 nM in-house Probe 1 (6-((3,5-dimethylphenyl)amino)-8-((4,26-dioxo-30-((3aS,4S,6aR)-2-oxohexahydro-1H-thieno[3,4-d]imidazol-4-yl)-7,10,13,16,19,22-hexaoxa-3,25-diazatriacontyl)amino)imidazo[1,2-b]pyridazine-3-carboxamide, KD=10 nM), 5 μl Mab Anti-6His Tb cryptate Gold (Cat: 61HI2TLB, Cisbio Bioassays) and Streptavidin-XL665(Cat: 610SAXLB, Cisobio Bioassays) mixture were added to plate and further incubated at room temperature for 1 hour. The HTRF signals (ex337 nm, em620 nm/665 nm) were read on BMG PHERAstar FS instrument. The inhibition percentage of TYK2 interaction with its probe in presence of increasing concentrations of compounds was calculated based on the ratio of fluorescence at […]. The IC50 for each compound was derived from fitting the data to the four-parameter logistic equation by Dotmatics.

The target of assay [2] is T2, JAK1-JH2 protein (aa 561-860, in-house) (Homo sapiens, UniProt P23458).
T2 construct: JAK1-JH2 protein (aa 561-860, in-house); made in house
Description: JAK1-JH2 biochemical assay (HTRF, blocking of JAK1-JH2 protein with its probe). As to conditions: 1.17 nM recombinant JAK1-JH2, Probe 2. The class given is binding. As to the method: Assay B: JAK1-JH2 Biochemical Assay
Compounds disclosed herein were tested for blocking of JAK1-JH2 protein (aa 561-860, in-house) with its probe in an assay based on Homogeneous Time Resolved Fluorescence. Compound dilution is done according to the following protocol: (1) Prepare 500× compounds solution in DMSO from 500 uM by 5-fold dilution, total 10 doses were included; (2) Prepare 10× compounds solution in an assay buffer containing 20 mM HEPES, pH 7.5, 10 mM MgCl2, 0.005% BSA, 2 mM DTT, 0.015% Brij-35 by transferring 1 μl serial 500× stock solution into 49 μl assay buffer. 4 μL of 1.17 nM recombinant JAK1-JH2 protein was pre-incubated with 1 μl of 10×serial dilution of compounds at room temperature for 0.5 hour. […] The HTRF signals (ex337 nm, em620 nm/665 nm) were read on BMG PHERAstar FS instrument. The inhibition percentage of JAK1 interaction with its probe in presence of increasing concentrations of compounds was calculated based on the ratio of fluorescence at 615 nm to that at 665 nm. The IC50 for each compound was derived from fitting the data to the four-parameter logistic equation by Dotmatics.

In assay [3] the test system is JAK1/p-STAT3(Tyr705) activated by IL-6 in TF-1 cell line. Description: IL-6-JAK1/p-STAT3(Tyr705) inhibition cellular assay. The class given is cell-based. To be noted: Homo sapiens, 0.5 h; TF-1 cells, IL-6 50 ng/ml, 30 min; read-out: Cellular assay pSTAT3/IL-6 IC50. The text has this: Assay D: IL-6-JAK1/p-STAT3(Tyr705) Inhibition IC50 Cellular Assay
To evaluate the inhibition effect of compounds disclosed herein on JAK1/p-STAT3(Tyr705) activated by IL-6 in TF-1 cell line, TF-1 cells were collected and washed 3 times by DPBS and resuspended in RPMI-1640 (phenol red free, Gibco, Cat #11835-030) with 0.1% FBS (Gibco, Cat #10099, Lot #1891605), without GM-CSF(R&D systems,Cat #215-GM-050), starved overnight. Cells were collected and resuspended in 1640 medium (phenol red free, Gibco, Cat #11835-030) with 0.1% BSA, and 12.5 μl/10×10^4/well cell suspension were seeded to the 96-well plate (Corning, Cat #3799). Then cells were treated with compounds diluted in 0.2% DMSO 1640 medium, at 37° C., 1 h. Dilution is done according to the following protocol: (1) make 500× compounds solution in DMSO from 5 mM by 4-fold dilution, total 8 doses were included; (3) make 2× compounds solution in assay medium by transferring 0.5 μl serial 500× stock solution into 125 μl assay medium; (4) 15 μl of 2× solution is added to cells and incubate at 37° C. for 1 h, the final compound conc. is 10000,2500,625,156.25,39,9.8,2.4 and 0.61 nM, respectively. After 1 h, cells were treated with 2.5 μl medium containing IL-6 at 37° C. (R&D systems, Cat #206-IL-010, final conc.50 ng/ml), 30 min. Following cells were lysed with 10 μl lysis buffer at RT, shaking on shaker for 1 h. 16 μL of cell lysate were transferred to a PE 384-well HTRF detection plate, and 4 μL of pre-mixed HTRF antibodies were added to each well. Covered the plate with a plate sealer, span 1000 rpm for 1 min, mix, Incubated overnight at room temperature. Read on BMG PheraStar with HTRF protocol (337 nm-665 nm-620 nm). IC 50 values were calculated by fitting dependent data to the four-parameter logistic model using dotmatics software. The assay was performed by using HTRF Phospho-STAT3(Tyr705) Cellular Assay Kit (Cisbio, Cat #62AT3PEG).

Assay [4] concerns JAK2, TYK2/p-STAT4 (Tyr693) activated by IL-12 in NK-92 cell line. In words: IL-12-JAK2, TYK2/p-STAT4 (Tyr693) inhibition cellular assay. The class given is cell-based. To be noted: for IC50: NK92, 0.5 h, NK-92 cells, IL-12 40 ng/ml, 30 min, read-out: Cellular assay pSTAT4/IL-12 IC50; for Cellular assay Selectivity fold (TYK2/JAK1): pSTAT4/IL-12 vs pSTAT3/IL-6 cellular IC50. The text has this: Assay C: IL-12-JAK2, TYK2/p-STAT4 (Tyr693) Inhibition IC50 Cellular Assay
To evaluate the inhibition effect of compounds disclosed herein on JAK2, TYK2/p-STAT4 (Tyr693) activated by IL-12 in NK-92 cell line, NK-92 cells were collected and washed 3 times by DPBS and resuspended in MEM-α(GIBCO,Cat #12561056) with 10% FBS (Gibco, Cat #10099, Lot #1891605), without IL-2 (R&D systems,Cat #202-IL), starved overnight. Cells were collected and resuspended in 1640 medium (phenol red free, Gibco, Cat #11835-030) with 0.1% BSA, and 12.5 μl/5×10^4/well cell suspension were seeded to the 96-well plate (Corning, Cat #3799). Then cells were treated with compounds diluted in 0.2% DMSO 1640 medium, at 37° C., 1 h. Dilution is done according to the following protocol: (1) make 500× compounds solution in DMSO from 5 mM by 4-fold dilution, total 8 doses were included; (3) make 2× compounds solution in assay medium by transferring 0.5 μl serial 500× stock solution into 125 μl assay medium; (4) 15 μl of 2× serial solution is added to cells and incubate at 37° C. for 1 h, the final compound conc. is 10000,2500,625,156.25,39,9.8,2.4 and 0.61 nM, respectively. After 1 h, cells were treated with 2.5 μl medium containing IL-12 at 37° C. (R&D systems, Cat #219-IL-005, final conc.40 ng/ml), 30 min. Following cells were lysed with 7.5 μl lysis buffer at RT, shaking on shaker for 1 h. 10 μL of cell lysate were transferred to a PE 384-well Proxiplate detection plate, and 5 μL of pre-mixed Alphascreen beads were added to each well. Covered the plate with a plate sealer, span 1000 rpm for 1 min, mix, Incubated overnight at room temperature. Read on BMG PheraStar with Alphascreen protocol. IC 50 values were calculated by fitting dependent data to the four-parameter logistic model using dotmatics software. The assay was performed by using AlphaLISA SureFire Ultra p-STAT4 (Tyr693) Assay Kit—High Volume (PE, Cat #ALSU-PST4-A-HV).

T1 sequence (P29597 575-869): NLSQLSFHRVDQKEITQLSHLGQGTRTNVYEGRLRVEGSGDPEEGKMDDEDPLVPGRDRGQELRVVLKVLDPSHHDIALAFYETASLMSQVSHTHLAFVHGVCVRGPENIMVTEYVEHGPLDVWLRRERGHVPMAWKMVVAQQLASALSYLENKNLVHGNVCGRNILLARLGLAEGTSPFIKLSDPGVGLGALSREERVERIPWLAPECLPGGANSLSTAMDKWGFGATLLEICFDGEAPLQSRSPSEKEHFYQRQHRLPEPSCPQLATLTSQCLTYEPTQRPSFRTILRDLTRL
T2 sequence (P23458 561-860): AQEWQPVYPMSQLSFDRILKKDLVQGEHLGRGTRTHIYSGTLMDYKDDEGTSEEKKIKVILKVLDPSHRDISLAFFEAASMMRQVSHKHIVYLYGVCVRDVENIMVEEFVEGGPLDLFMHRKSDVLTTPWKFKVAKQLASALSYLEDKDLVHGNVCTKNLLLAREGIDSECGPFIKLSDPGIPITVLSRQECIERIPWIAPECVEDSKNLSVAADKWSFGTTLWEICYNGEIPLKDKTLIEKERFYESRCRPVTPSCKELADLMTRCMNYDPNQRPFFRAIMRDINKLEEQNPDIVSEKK

Consider `CNC(=O)c1nnc(NC(=O)C2CC2)cc1Nc1nc2ccccc2o1` [Example A1, 4-(benzo[d]oxazol-2-ylamino)-6-(cyclopropanecarboxamido)-N-methylpyridazine-3-carboxamide], for which, in assay [1], the IC50 was found to be 456 nM and the “Biochemical assay Selectivity fold (TYK2/JAK1)” value was >22 fold. The IC50 in assay [2] was > 10000 nM.
With `CNC(=O)c1nnc(NC(=O)C2CC2)cc1Nc1nc2ccccc2n1C` [Example A2, 6-(cyclopropanecarboxamido)-N-methyl-4-((1-methyl-1H-benzo[d]imidazol-2-yl)amino) pyridazine-3-carboxamide], in assay [1], the IC50 stood at 34 nM and the “Biochemical assay Selectivity fold (TYK2/JAK1)” value came to 5 fold. Besides, in assay [2], the IC50 stood at 174 nM.
In the case of `CNC(=O)c1nnc(NC(=O)C2CC2)cc1Nc1nc2ccccc2[nH]1` [Example A3, 4-((1H-benzo [d]imidazol-2-yl)amino)-6-(cyclopropane-carboxamido)-N-methyl-pyridazine-3-carboxamide], in assay [1], the IC50 came out at 1.4 nM and the “Biochemical assay Selectivity fold (TYK2/JAK1)” value is listed as 2.6 fold. The IC50 in assay [2] came out at 3.7 nM.
In the case of `CNC(=O)c1nnc(NC(=O)C2CC2)cc1Nc1nc2ccccn2n1` [Example A4, 4-([1,2,4]triazolo[1,5-a]pyridin-2-ylamino)-6-(cyclopropane-carboxamido)-N-methyl-pyridazine-3-carboxamide], the IC50 in assay [3] turned out to be 2410 nM; in assay [4] it was 104 nM; in assay [1], 0.16 nM; in assay [2] it was 1.3 nM. The “Cellular assay Selectivity fold (TYK2/JAK1)” value in assay [4] was found to be 23 fold. Moreover, the “Biochemical assay Selectivity fold (TYK2/JAK1)” value in assay [1] was 8 fold.
As to `CNC(=O)c1nnc(NC(=O)C2CC2)cc1Nc1nc2ccc(P(C)(C)=O)cn2n1` [Example A5, 6-(cyclopropanecarboxamido)-4-((6-(dimethylphosphoryl)-[1,2,4]triazolo[1,5-a]pyridin-2-yl)amino)-N-methyl-pyridazine-3-carboxamide], the IC50 in assay [3] is > 10000 nM; in assay [4], > 10000 nM; in assay [1], 0.56 nM; in assay [2] it was 13 nM. Also, in assay [1], the “Biochemical assay Selectivity fold (TYK2/JAK1)” value came to 23 fold.
On to `CNC(=O)c1nnc(NC(=O)C2CC2)cc1Nc1nc2cc(OC)c(N3CCC3)cn2n1` [Example B1, 4-((6-(azetidin-1-yl)-7-methoxy-[1,2,4]triazolo[1,5-a]pyridin-2-yl)amino)-6-(cyclopropanecarboxamido)-N-methylpyridazine-3-carboxamide], for which the IC50 in assay [3] is > 10000 nM; in assay [4], 3530 nM; in assay [1], 0.936 nM; in assay [2], 2.03 nM. Besides, the “Cellular assay Selectivity fold (TYK2/JAK1)” value in assay [4] is given as >3 fold. In addition, the “Biochemical assay Selectivity fold (TYK2/JAK1)” value in assay [1] came out at 2 fold.
With `CNC(=O)c1nnc(NC(=O)C2CC2)cc1Nc1nc2ccc(OC3CN(C(=O)OC(C)(C)C)C3)cn2n1` [Example C1, tert-butyl 3-((2-((6-(cyclopropanecarboxamido)-3-(methylcarbamoyl)pyridazin-4-yl)amino)-[1,2,4]triazolo[1,5-a]pyridin-6-yl)oxy)azetidine-1-carboxylate], the IC50 in assay [1] was found to be 0.1 nM; in assay [2], 1.3 nM. Moreover, the “Biochemical assay Selectivity fold (TYK2/JAK1)” value in assay [1] was 13 fold.
For the compound `CNC(=O)c1nnc(NC(=O)C2CC2)cc1Nc1nc2ccc(OC3CNC3)cn2n1` [Example C2, 4-((6-(azetidin-3-yloxy)-[1,2,4]triazolo[1,5-a]pyridin-2-yl)amino)-6-(cyclopropanecarboxamido)-N-methylpyridazine-3-carboxamide], in assay [1], the IC50 came to 0.14 nM and the “Biochemical assay Selectivity fold (TYK2/JAK1)” value turned out to be 9 fold. The IC50 in assay [2] was determined as 1.2 nM.
As to `CNC(=O)c1nnc(NC(=O)C2CC2)cc1Nc1nc2ccc(N3CCC(N4CCC4)CC3)cn2n1` [Example E11, 4-((6-(4-(azetidin-1-yl)piperidin-1-yl)-[1,2,4]triazolo[1,5-a]pyridin-2-yl)amino)-6-(cyclopropanecarbox-amido)-N-methyl-pyridazine-3-carboxamide], in assay [1], the IC50 was determined as 0.18 nM and the “Biochemical assay Selectivity fold (TYK2/JAK1)” value is given as 32 fold. The IC50 in assay [2] worked out at 5.8 nM.

For the origin of these results see patent US12606556B2, “TYK-2 inhibitor” (BEIGENE, LTD., priority 2020, dated 2026).
